# Results published in patent EP0908457B1, “3-(1,2-benzisothiazol- and isoxazol-5-Y1)-2,4(1H,3H)-pyrimidinedione or thione and 3-(1,2-benzisothiazol- and isoxazol-5-y1)-4(3H)-pyrimidinone or thione herbicidal agents” (BASF AKTIENGESELLSCHAFT, priority 1997, dated 1999).
# Key:
# Assay type in all cases: in vivo
# Cyperus iria = test: Preemergence weed control under flooded paddy conditions, CYPIR (Rice Flatsedge); details: flooded paddy, rated three to four weeks after treatment; on herbicidal effect rating, CYPIR: meaning of each grade not given here
# [1] = test system: Cyperus serotinus, Rottb.; test: Preemergence weed control under flooded paddy conditions, CYPSE (Flatsedge); details: rated three to four weeks after treatment; on herbicidal effect rating, CYPSE: meaning of each grade not given here
# Sagittaria pygmaea, L. = test: Preemergence weed control under flooded paddy conditions, SAGPY (Arrowhead (Pygmaea)); details: flooded paddy, rated three to four weeks after treatment; on herbicidal effect rating, SAGPY: meaning of each grade not given here
# [2] = test system: Echinochloa oryzoides (Ard.) Fritsch.; test: Preemergence weed control under flooded paddy conditions, ECHORC (Watergrass (Calif.)); details: flooded paddy, rated three to four weeks after treatment; on herbicidal effect rating, ECHORC: meaning of each grade not given here
# [3] = test system: Monochoria vaginalis, Presl.; test: Preemergence weed control under flooded paddy conditions, MOOVA (Monochoria); details: flooded paddy, rated three to four weeks after treatment; on herbicidal effect rating, MOOVA: meaning of each grade not given here
# [4] = Rate 0.0320 kg/ha, preemergence
# [5] = Rate 0.0620 kg/ha, preemergence
# [6] = Rate 0.1250 kg/ha, preemergence
# [7] = Rate 0.2500 kg/ha, preemergence
# [8] = Rate 0.5000 kg/ha, preemergence
# [9] = Rate 0.0320 kg/ha, preemergence weeds
# [10] = Rate 0.0620 kg/ha, preemergence weeds
# [11] = Rate 0.1250 kg/ha, preemergence weeds
# [12] = Rate 0.2500 kg/ha, preemergence weeds
SMILES,"herbicidal effect rating, CYPIR (Cyperus iria; [4])","herbicidal effect rating, CYPIR (Cyperus iria; [5])","herbicidal effect rating, CYPIR (Cyperus iria; [6])","herbicidal effect rating, CYPIR (Cyperus iria; [7])","herbicidal effect rating, CYPSE [1, 4]","herbicidal effect rating, CYPSE [1, 5]","herbicidal effect rating, CYPSE [1, 6]","herbicidal effect rating, CYPSE [1, 7]","herbicidal effect rating, SAGPY (Sagittaria pygmaea, L.; [4])","herbicidal effect rating, SAGPY (Sagittaria pygmaea, L.; [5])","herbicidal effect rating, SAGPY (Sagittaria pygmaea, L.; [6])","herbicidal effect rating, SAGPY (Sagittaria pygmaea, L.; [7])","herbicidal effect rating, ECHORC [2, 4]","herbicidal effect rating, ECHORC [2, 5]","herbicidal effect rating, ECHORC [2, 6]","herbicidal effect rating, ECHORC [2, 7]","herbicidal effect rating, MOOVA [3, 4]","herbicidal effect rating, MOOVA [3, 5]","herbicidal effect rating, MOOVA [3, 6]","herbicidal effect rating, MOOVA [3, 7]",further results
"Cn1c(C(F)(F)F)cc(=O)n(-c2ccc3snc(COC(=O)c4ccccc4)c3c2)c1=O [Example 364, 2,4(1H,3H)-Pyrimidinedione, 3-[3-(hydroxymethyl)-1,2-benzisothiazol-5-yl]-1-methyl-6-(trifluoromethyl)-, benzoate (ester)]",7.0,7.0,9.0,9.0,3.0,3.0,5.0,6.0,4.0,4.0,5.0,9.0,3.0,5.0,6.0,6.0,9.0,9.0,9.0,9.0,"herbicidal effect rating, CYPIR (Cyperus iria; [8]): 9.0; herbicidal effect rating, CYPSE [1, 8]: 7.0; herbicidal effect rating, SAGPY (Sagittaria pygmaea, L.; [8]): 9.0; herbicidal effect rating, ECHORC [2, 8]: 7.0; herbicidal effect rating, MOOVA [3, 8]: 9.0"
"COc1ccc(OC)c(CC(=O)OCc2nsc3ccc(-n4c(=O)cc(C(F)(F)F)n(C)c4=O)cc23)c1 [Example 503, 2,4(1H,3H)-Pyrimidinedione, 3-[3-(hydroxymethyl)-1,2-benzisothiazol-5-yl]-1-methyl-6-(trifluoromethyl)-, (2,5-dimethoxyphenyl)acetate (ester)]",,,,,,,,,,,,,,,,,,,,,"CYPIR herbicidal rating (Cyperus iria; 0.0320 kg/ha, preemergence): 0.0; CYPIR herbicidal rating (Cyperus iria; 0.0620 kg/ha, preemergence): 6.0; CYPIR herbicidal rating (Cyperus iria; 0.1250 kg/ha, preemergence): 9.0; CYPIR herbicidal rating (Cyperus iria; 0.2500 kg/ha, preemergence): 7.0; CYPSE herbicidal rating ([1]; 0.1250 kg/ha, preemergence): 5.0; CYPSE herbicidal rating ([1]; 0.2500 kg/ha, preemergence): 6.0; SAGPY herbicidal rating (Sagittaria pygmaea, L.; 0.0320 kg/ha, preemergence): 0.0; SAGPY herbicidal rating (Sagittaria pygmaea, L.; 0.0620 kg/ha, preemergence): 3.0; SAGPY herbicidal rating (Sagittaria pygmaea, L.; 0.1250 kg/ha, preemergence): 4.0; SAGPY herbicidal rating (Sagittaria pygmaea, L.; 0.2500 kg/ha, preemergence): 8.0; ECHORC herbicidal rating ([2]; 0.0320 kg/ha, preemergence): 2.0; ECHORC herbicidal rating ([2]; 0.0620 kg/ha, preemergence): 4.0; ECHORC herbicidal rating ([2]; 0.1250 kg/ha, preemergence): 6.0; ECHORC herbicidal rating ([2]; 0.2500 kg/ha, preemergence): 6.0; MOOVA herbicidal rating ([3]; 0.0320 kg/ha, preemergence): 7.0; MOOVA herbicidal rating ([3]; 0.0620 kg/ha, preemergence): 9.0; MOOVA herbicidal rating ([3]; 0.1250 kg/ha, preemergence): 9.0; MOOVA herbicidal rating ([3]; 0.2500 kg/ha, preemergence): 9.0"
"Cn1c(C(F)(F)F)cc(=O)n(-c2ccc3snc(COC(=O)Cc4ccccc4Cl)c3c2)c1=O [Example 402, 2,4(1H,3H)-Pyrimidinedione, 3-[3-(hydroxymethyl)-1,2-benzisothiazol-5-yl]-1-methyl-6-(trifluoromethyl)-, (o-chlorophenyl)acetate (ester)]",0.0,2.0,3.0,7.0,,0.0,0.0,5.0,0.0,0.0,0.0,3.0,0.0,0.0,3.0,4.0,7.0,7.0,9.0,9.0,
"CN(O)C(=O)c1nsc2ccc(-n3c(=O)cc(C(F)(F)F)n(C)c3=O)cc12 [Example 398, 1,2-Benzisothiazole-3-carbohydroxamic acid, 5-[3,6-dihydro-3-methyl-2,6-dioxo-4-(trifluoromethyl)-1(2H)-pyrimidinyl]-N-methyl-]",0.0,3.0,6.0,8.0,0.0,0.0,3.0,3.0,0.0,0.0,0.0,3.0,0.0,2.0,3.0,8.0,6.0,9.0,9.0,9.0,
"CC(OS(C)(=O)=O)c1nsc2ccc(-n3c(=O)cc(C(F)(F)F)n(C)c3=O)cc12 (centres unmarked) [Example 309, 2,4(1H,3H)-Pyrimidinedione, 3-[3-(1-hydroxyethyl)-1,2-benzisothiazol-5-yl]-1-methyl-6-(trifluoromethyl)-, methanesulfonate (ester)]",,,,,,,,,,,,,,,,,,,,,"herbicidal effect rating, CYPIR (Cyperus iria; [9]): 9.0; herbicidal effect rating, CYPIR (Cyperus iria; [10]): 9.0; herbicidal effect rating, CYPIR (Cyperus iria; [11]): 9.0; herbicidal effect rating, CYPIR (Cyperus iria; [12]): 9.0; herbicidal effect rating, CYPSE [1, 9]: 0.0; herbicidal effect rating, CYPSE [1, 10]: 0.0; herbicidal effect rating, CYPSE [1, 11]: 0.0; herbicidal effect rating, CYPSE [1, 12]: 7.0; herbicidal effect rating, SAGPY (Sagittaria pygmaea, L.; [9]): 2.0; herbicidal effect rating, SAGPY (Sagittaria pygmaea, L.; [10]): 3.0; herbicidal effect rating, SAGPY (Sagittaria pygmaea, L.; [11]): 4.0; herbicidal effect rating, SAGPY (Sagittaria pygmaea, L.; [12]): 8.0; herbicidal effect rating, ECHORC [2, 9]: 1.0; herbicidal effect rating, ECHORC [2, 10]: 2.0; herbicidal effect rating, ECHORC [2, 11]: 4.0; herbicidal effect rating, ECHORC [2, 12]: 7.0; herbicidal effect rating, MOOVA [3, 9]: 6.0; herbicidal effect rating, MOOVA [3, 10]: 6.0; herbicidal effect rating, MOOVA [3, 11]: 9.0; herbicidal effect rating, MOOVA [3, 12]: 9.0"
"Cn1c(C(F)(F)F)cc(=O)n(-c2ccc3snc(C(C#N)=Cc4ccccc4F)c3c2)c1=O [Example 605, 1,2-Benzisothiazole-3-acetonitrile, 5-[3,6-dihydro-3-methyl-2,6-dioxo-4-(trifluoromethyl)-1(2H)-pyrimidinyl]-alpha-(o-fluorobenzylidene)-]",1.0,3.0,7.0,7.0,0.0,0.0,0.0,0.0,4.0,4.0,5.0,7.0,4.0,4.0,7.0,7.0,9.0,9.0,9.0,9.0,
